# In patent EP0354453A2, “Antimicrobial agent for animals” (priority 1988, dated 1990):
# Key:
# [1] = system: Bordetella bronchiaseptica OKM-1; assay: in vitro antimicrobial activity (MIC), agar dilution, Part 2; assay type: cell-based; conditions: Bordetella, OKM1, Bordetella bronchiaseptica OKM-1, Pig; read-out: MIC
# Method: (§1) Test microorganisms listed in Table 2 were cultured overnight in heart infusion nutrient broth (produced by Eiken Chemical Co., Ltd.). Culture broth containing about 10⁸/ml cells was diluted to a volume of 100 times. An aliquot (about 0.05 ml) of the diluted broth was inoculated onto a Mueller Hinton agar plate (produced by Eiken Chemical Co., Ltd.) to which Compound No. 1 was added in a prescribed concentration. […]
# (§2) MIC of Compounds (1)-(8) against various pathogenic bacteria derived from animals was determined in the same manner as in Example 1.
# Escherichia coli 139 = assay: as above; assay type: cell-based; conditions: Escherichia coli 139, Cow; read-out: MIC
# Method: as §1, §2
# Escherichia coli 881 = assay: as above; assay type: cell-based; conditions: Escherichia coli, 881, Escherichia coli 881, Pig; read-out: MIC
# Method: as §1, §2
# Escherichia coli S6W = assay: as above; assay type: cell-based; conditions: Escherichia coli, S6W, Escherichia coli S6W, Chicken; read-out: MIC
# Method: as §1, §2
# [2] = system: Pasteurella multocida DB-12-1; assay: as above; assay type: cell-based; conditions: DB121; Pasteurella multocida DB-12-1, Pig; read-out: MIC
# Method: as §1, §2
# [3] = system: Salmonella typhimurium 103; assay: as above; assay type: cell-based; conditions: Salmonella enterica; Salmonella typhimurium 103, Chicken; read-out: MIC
# Method: as §1, §2
# [4] = system: Salmonella typhimurium 569; assay: as above; assay type: cell-based; conditions: Salmonella enterica, TYPHIMURIUM, Salmonella typhimurium 569, Pig; read-out: MIC
# Method: as §1, §2
# [5] = system: Staphylococcus aureus Yamaguchi 6; assay: as above; assay type: cell-based; conditions: Staphylococcus aureus Yamaguchi 6, Chicken; read-out: MIC
# Method: as §1, §2
# [6] = system: Mycoplasma gallisepticum Strain 2004; assay: in vitro antimicrobial activity (MIC) in Frey liquid medium; assay type: cell-based; conditions: Mycoplasmoides gallisepticum, STRAIN2004; Mycoplasma gallisepticum Strain 2004, from chicken; Frey liquid medium, 37°C, 3-5 days; read-out: MIC
# Method: (§3) Various test strains of Mycoplasma gallisepticum derived from chicken were cultured in a Frey liquid medium for Mycoplasma for 3 days. The culture broth containing about 10⁸/ml cells was diluted to a volume of 100 times. The diluted broth was inoculated into Frey liquid media for Mycoplasma to which the compounds of this invention were added at prescribed concentrations. The cells were incubated at 37°C for 3-5 days while daily observing the color of the media. Among the culture broths maintaining yellow color at the time when the control to which no test compound was added turned red, the concentration of the broth having the minimum concentration was taken as the MIC of the compound.
# [7] = system: Mycoplasma gallisepticum Strain 2012; assay: as above; assay type: cell-based; conditions: Mycoplasmoides gallisepticum, STRAIN2012; Mycoplasma gallisepticum Strain 2012, from chicken; Frey liquid medium, 37°C, 3-5 days; read-out: MIC
# Method: as §3
# [8] = system: Mycoplasma gallisepticum Strain DP-1047; assay: as above; assay type: cell-based; conditions: Mycoplasmoides gallisepticum; Mycoplasma gallisepticum Strain DP-1047, from chicken; Frey liquid medium, 37°C, 3-5 days; read-out: MIC
# Method: as §3
# [9] = system: Mycoplasma gallisepticum Strain T-2; assay: as above; assay type: cell-based; conditions: Mycoplasmoides gallisepticum; Mycoplasma gallisepticum Strain T-2, from chicken; Frey liquid medium, 37°C, 3-5 days; read-out: MIC
# Method: as §3
# [10] = system: Mycoplasma gallisepticum Strain T-7; assay: as above; assay type: cell-based; conditions: Mycoplasmoides gallisepticum, Mycoplasma gallisepticum Strain T-7, from chicken, 37°C, 3-5 days
# Method: as §3
# Mycoplasma gallisepticum = assay: Effect of oral administration on chicken inoculated with Mycoplasma gallisepticum; assay type: in vivo; conditions: for Chickens developing disease in air sac (naked eye observation) / No. of dead chickens: 5 tested chickens
# Method: Mycoplasma gallisepticum cells collected from chickens having respiratory Mycoplasma infection were cultured for 3 days in a Frey liquid media for Mycoplasma. 0.2 ml of this culture broth was injected into the trachea of chickens of an average body weight of 80 g using a 1 ml disposable injection needle. Beginning from the next day following the inoculation, feeds to which Compound (1) had been added in the amount of 100 ppm, 75 ppm, or 50 ppm were freely given to the chickens for 5 days. Following the administration of Compound (1) the chickens were given feed containing no drug for a further 5 days. The surviving chickens were sacrificed and dissected. After examination of the degree of disease in the air sac, Mycoplasma gallisepticum in the infraorbital sinus, trachea, lung, and air sac were determined. […] TABLE 6 […]
# [11] = Acute toxicity test, intravenous injection; assay type: in vivo
# Method: Representative test compounds, Compounds (2) and (3), were intravenously injected to mice. No fatality occurred at a dose of 200 mg/kg (10 mice/group), for Compound (2), and a dose of 200 mg/kg (6 mice/group), for Compound (3). From the results, the LD₅₀ values of the compounds are considered to be greater than 200 mg/kg.
compound,measurement,setting,value
"CCCN1CCN(c2c(F)cc3c(=O)c(C(=O)O)cn4c3c2OCC4C)CC1 (racemic) [Compound (3), 3(RS)-9-fluoro-2,3-dihydro-3-methyl-10-(4-n-propyl-1-piperazinyl)-7-oxo-7H-pyrido[1,2,3-de] [1,4]benzoxazine-6-carboxylic acid]",MIC,[1],0.78 µg/mL
same,MIC,Escherichia coli 139,0.39 µg/mL
same,MIC,Escherichia coli 881,0.2 µg/mL
same,MIC,Escherichia coli S6W,0.39 µg/mL
same,MIC,[2],0.1 µg/mL
same,MIC,[3],0.78 µg/mL
same,MIC,[4],0.39 µg/mL
same,MIC,[5],0.78 µg/mL
same,MIC,[6],0.025 µg/mL
same,MIC,[7],0.05 µg/mL
same,MIC,[8],0.2 µg/mL
same,MIC,[9],0.2 µg/mL
same,MIC,[10],0.39 µg/mL
same,Mycoplasma gallisepticum collected in Air sac,Mycoplasma gallisepticum; 50 ppm in feed for 5 days,3.24 Logarithmic number of collected cells per 1 g of tissue
same,Mycoplasma gallisepticum collected in Infraorbital sinus,Mycoplasma gallisepticum; 50 ppm in feed for 5 days,0/5
same,Mycoplasma gallisepticum collected in Lung,Mycoplasma gallisepticum; 50 ppm in feed for 5 days,2.38 Logarithmic number of collected cells per 1 g of tissue
same,Mycoplasma gallisepticum collected in Trachea,Mycoplasma gallisepticum; 50 ppm in feed for 5 days,0 Logarithmic number of collected cells per 1 g of tissue
same,Chickens developing disease in air sac (naked eye observation),Mycoplasma gallisepticum; 50 ppm in feed for 5 days,0
same,No. of dead chickens,Mycoplasma gallisepticum; 50 ppm in feed for 5 days,0
same,Mycoplasma gallisepticum collected in Air sac,Mycoplasma gallisepticum; 75 ppm in feed for 5 days,0 Logarithmic number of collected cells per 1 g of tissue
same,Mycoplasma gallisepticum collected in Infraorbital sinus,Mycoplasma gallisepticum; 75 ppm in feed for 5 days,0/5
same,Mycoplasma gallisepticum collected in Lung,Mycoplasma gallisepticum; 75 ppm in feed for 5 days,0 Logarithmic number of collected cells per 1 g of tissue
same,Mycoplasma gallisepticum collected in Trachea,Mycoplasma gallisepticum; 75 ppm in feed for 5 days,0 Logarithmic number of collected cells per 1 g of tissue
same,Chickens developing disease in air sac (naked eye observation),Mycoplasma gallisepticum; 75 ppm in feed for 5 days,0
same,No. of dead chickens,Mycoplasma gallisepticum; 75 ppm in feed for 5 days,0
same,Mycoplasma gallisepticum collected in Air sac,Mycoplasma gallisepticum; 100 ppm in feed for 5 days,0 Logarithmic number of collected cells per 1 g of tissue
same,Mycoplasma gallisepticum collected in Infraorbital sinus,Mycoplasma gallisepticum; 100 ppm in feed for 5 days,0/5
same,Mycoplasma gallisepticum collected in Lung,Mycoplasma gallisepticum; 100 ppm in feed for 5 days,0 Logarithmic number of collected cells per 1 g of tissue
same,Mycoplasma gallisepticum collected in Trachea,Mycoplasma gallisepticum; 100 ppm in feed for 5 days,0 Logarithmic number of collected cells per 1 g of tissue
same,Chickens developing disease in air sac (naked eye observation),Mycoplasma gallisepticum; 100 ppm in feed for 5 days,0
same,No. of dead chickens,Mycoplasma gallisepticum; 100 ppm in feed for 5 days,0
same,fatality,"[11]; mice, intravenously injected, dose of 200 mg/kg",No fatality
same,LD50,"[11]; mouse, in vivo, iv",> 200 mg/kg
